The record followed here is US11219213B2, “Fungicidal composition” (ADAMA HUIFENG (JIANGSU) LTD., priority 2016, dated 2022).

The term EC50 denotes the concentration needed to bring the measured effect to its halfway point.

Read-outs that look alike come from different tables or passages of the source.

For this experiment, the system named is wheat leaf rust. As to the kind of experiment: Toxicity test of benzisothiazolinone combined with flutriafol (bioassay). The experiment is classed as in vivo. The settings on record: for ATI (actual toxicity index): (EC50 of standard/EC50 of test agent)*100, flutriafol as standard; for EC50: median inhibition concentration from control effect, least square method.

As to `O=c1[nH]sc2ccccc12` [Benzisothiazolinone, benzisothiazolinone], the “ATI (actual toxicity index)” value is given as 167.39 and the concentration giving a half-maximal response (EC50) is 40.23 µg/mL.
With `OC(Cn1cncn1)(c1ccc(F)cc1)c1ccccc1F` (stereo not shown) [Flutriafol, flutriafol], the “ATI (actual toxicity index)” value is given as 100.00. Further, the EC50 (Puccinia triticina, read-out: EC50) came to 67.3 µg/mL.
